Each structure is given as a SMILES string.

The test concerns IL1-β release upon NLRP3 activation in peripheral blood mononuclear cells (PBMC). Put plainly: PBMC IC50 Determination Assay. The following applies: Homo sapiens; PBMC from buffy coats, LPS 3 h, compound 30 min, then ATP (5 mM) or nigericin (10 μM) for 1 h; IL-1β in media by ELISA; read-out: PBMCs, IC50. The class given is cell-based. The protocol: PBMC IC50 Determination Assay
The compounds of the present disclosure were tested for their inhibitory activity against IL1-β release upon NLRP3 activation in peripheral blood mononuclear cells (PBMC).
Isolated cells were seeded into the wells of a 96-well plate and incubated for 3 h with lipopolysaccharide (LPS). Following medium exchange, the compounds of the present disclosure were added (a single compound per well) and the cells were incubated for 30 min. Next, the cells were stimulated either with ATP (5 mM) or nigericin (10 μM) for 1 h and the cell culture media from the wells were collected for further analysis.
The release of IL-1β into the media was determined by a quantitative detection of IL-1β in 5 the media using an IL-1β enzyme-linked immunosorbent assay (ELISA) Ready-SET-Go!, eBioscience cat. […] Subsequently, plates were blocked with blocking buffer for 1 h at room temperature (rt) and after washing with a buffer (PBS with 0.05% Tween-20) incubated with protein standard and culture media. […] Plates were washed and incubated with HRP-streptavidin for 30 min at rt and washed again. The signal was developed after addition of 3,39,S,59-tetramethylbenzidine-peroxidase (TMB) until color appeared and the reaction was stopped by 2 M H2SO4. A microplate spectrophotometer (BioTek) was used to detect signals with 450 nm. The detection range of IL-1β ELISA was […].
For orientation: In an ELISA, binding on a coated surface is turned into a signal by an enzyme label.
Turning to `COC(=O)C(Cc1cccc(O)c1)NC(=O)Nc1c2c(cc3c1CCC3)CCC2` (stereo not drawn) [Example 2A, Methyl2-{[(1,2,3,5,6,7-hexahydro-s-indacen-4-yl)carbamoyl]amino}-3-(3-hydroxyphenyl)propanoate], the IC50 is 2500 nM.
For `CC(C)OC(=O)CNC(=O)Nc1c2c(cc3c1CCC3)CCC2` [Example 2AA, propan-2-yl 2-{[(1,2,3,5,6,7-hexahydro-s-indacen-4-yl)carbamoyl]amino}acetate] the value was 1800 nM.
For `CCOC(=O)C(Cc1ccon1)NC(=O)Nc1c2c(cc3c1CCC3)CCC2` (stereo not drawn) [Example 2AB, Ethyl 2-{[(1,2,3,5,6,7-hexahydro-s-indacen-4-yl)carbamoyl]amino}-3-(1,2-oxazol-3-yl)propanoate] the value was 1800 nM; for `CCOC(=O)C(Cc1ncco1)NC(=O)Nc1c2c(cc3c1CCC3)CCC2` (stereo not drawn) [Example 2AC, Ethyl 2-{[(1,2,3,5,6,7-hexahydro-s-indacen-4-yl)carbamoyl]amino}-3-(1,3-oxazol-2-yl)propanoate], 670 nM; for `CCOC(=O)[C@@H](Cc1cccnc1)NC(=O)Nc1cc2c(cc1C(C)C)CCC2` [Example 2AD, Ethyl (2R)-2-({[6-(propan-2-yl)-2,3-dihydro-1H-inden-5-yl]carbamoyl}amino)-3-(pyridin-3-yl)propanoate], 2900 nM.
With `COC(=O)[C@@H](Cc1cncnc1)NC(=O)Nc1c2c(cc3c1CCC3)CCC2` [Example 2AE, Methyl (2R)-2-{[(1,2,3,5,6,7-hexahydro-s-indacen-4-yl)carbamoyl]amino}-3-(pyrimidin-5-yl)propanoate], the IC50 stood at 4500 nM.
For `COC(=O)[C@@H](Cc1cnccn1)NC(=O)Nc1c2c(cc3c1CCC3)CCC2` [Example 2AF, Methyl (2R)-2-{[(1,2,3,5,6,7-hexahydro-s-indacen-4-yl)carbamoyl]amino}-3-(pyrazin-2-yl)propanoate], the IC50 amounted to 460 nM.
For `CCOC(=O)C(Cc1ccnnc1)NC(=O)Nc1c2c(cc3c1CCC3)CCC2` (stereo not drawn) [Example 2AG, Ethyl 2-{[(1,2,3,5,6,7-hexahydro-s-indacen-4-yl)carbamoyl]amino}-3-(pyridazin-4-yl)propanoate] the value was 6000 nM.
`CCOC(=O)C(Cc1ccncn1)NC(=O)Nc1c2c(cc3c1CCC3)CCC2` (stereo not drawn) [Example 2AI, ethyl 2-{[(1,2,3,5,6,7-hexahydro-s-indacen-4-yl)carbamoyl]amino}-3-(pyrimidin-4-yl)propanoate]: the IC50 is 6800 nM.
Consider `O=C(Nc1c2c(cc3c1CCC3)CCC2)NC(Cc1ncccn1)C(=O)O` (stereo not drawn) [Example 2AJ, 2-{[(1,2,3,5,6,7-hexahydro-s-indacen-4-yl)carbamoyl]amino}-3-(pyrimidin-2-yl)propanoic acid], for which the concentration for half-maximal inhibition (IC50) was found to be 15000 nM.
As to `COC(=O)C(Cc1ccccc1O)NC(=O)Nc1c2c(cc3c1CCC3)CCC2` (stereo not drawn) [Example 2B, Methyl2-{[(1,2,3,5,6,7-hexahydro-s-indacen-4-yl)carbamoyl]amino}-3-(2-hydroxyphenyl)propanoate], the IC50 turned out to be 60 nM.
For `COC(=O)[C@@H](CC(N)=O)NC(=O)Nc1c2c(cc3c1CCC3)CCC2` [Example 2BB, methyl(2R)-3-carbamoyl-2-{[(1,2,3,5,6,7-hexahydro-s-indacen-4yl)carbamoyl]amino}propanoate] the value was 32000 nM; for `COC(=O)C(Cc1cccc(C(C)=O)c1)NC(=O)Nc1c2c(cc3c1CCC3)CCC2` (stereo not drawn) [Example 2C, Methyl 3-(3-acetylphenyl)-2-{[(1,2,3,5,6,7-hexahydro-s-indacen-4-yl)carbamoyl]amino}propanoate], 350 nM.
Turning to `COC(=O)[C@@H](Cc1cccs1)NC(=O)Nc1c2c(cc3c1CCC3)CCC2` [Example 2CC, methyl (2R)-2-{[(1,2,3,5,6,7-hexahydro-s-indacen-4-yl)carbamoyl]amino}-3-(thiophen-2-yl)propanoate], the IC50 was found to be 500 nM.
For the molecule `COC(=O)[C@@H](Cc1ccc(C#N)cc1)NC(=O)Nc1c2c(cc3c1CCC3)CCC2` [Example 2D, Methyl (2R)-3-(4-cyanophenyl)-2-{[(1,2,3,5,6,7-hexahydro-s-indacen-4-yl)carbamoyl]amino}propanoate], the IC50 was found to be 1400 nM.
Take `COC(=O)C(Cn1ccnc1)NC(=O)Nc1c2c(cc3c1CCC3)CCC2` (stereo not drawn) [Example 2DD, methyl 2-{[(1,2,3,5,6,7-hexahydro-s-indacen-4-yl)carbamoyl]amino}-3-(1H-imidazol-1-yl)propanoate]: the IC50 was determined as 6200 nM.
For `COC(=O)[C@@H](Cc1cccc(C#N)c1)NC(=O)Nc1c2c(cc3c1CCC3)CCC2` [Example 2E, Methyl(2R)-3-(3-cyanophenyl)-2-{[(1,2,3,5,6,7-hexahydro-s-indacen-4-yl)carbamoyl]amino}propanoate] the value was 1700 nM; for `COC(=O)CNC(=O)Nc1c2c(cc3c1CCC3)CCC2` [Example 2EE, methyl 2-{[(1,2,3,5,6,7-hexahydro-s-indacen-4-yl)carbamoyl]amino}acetate], 3700 nM; for `COC(=O)[C@@H](Cc1ccccn1)NC(=O)Nc1c2c(cc3c1CCC3)CCC2` [Example 2F, Methyl (2R)-2-{[(1,2,3,5,6,7-hexahydro-s-indacen-4-yl)carbamoyl]amino}-3-(pyridin-2-yl)propanoate], 4200 nM.
In the case of `COC(=O)C(Cc1cccc(CO)c1)NC(=O)Nc1c2c(cc3c1CCC3)CCC2` (stereo not drawn) [Example 2G, Methyl2-{[(1,2,3,5,6,7-hexahydro-s-indacen-4-yl)carbamoyl]amino}-3-[3-(hydroxymethyl)phenyl]propanoate], the IC50 was determined as 1400 nM.
On to `COC(=O)[C@@H](Cc1cccnc1)NC(=O)Nc1c2c(cc3c1CCC3)CCC2` [Example 2H, Methyl (2R)-2-{[(1,2,3,5,6,7-hexahydro-s-indacen-4-yl)carbamoyl]amino}-3-(pyridin-3-yl)propanoate], for which the IC50 is 880 nM.
With `COC(=O)[C@@H](Cc1cccc(N)c1)NC(=O)Nc1c2c(cc3c1CCC3)CCC2` [Example 2HH, methyl(2R)-3-(3-aminophenyl)-2-{[(1,2,3,5,6,7-hexahydro-s-indacen-4yl)carbamoyl]amino}propanoate], the IC50 amounted to 4400 nM.
Take `COC(=O)C(Cc1cccc(-c2cncn2C)c1)NC(=O)Nc1c2c(cc3c1CCC3)CCC2` (stereo not drawn) [Example 2I, Methyl 2-{[(1,2,3,5,6,7-hexahydro-s-indacen-4-yl)carbamoyl]amino}-3-[3-(1-methyl-1H-imidazol-5-yl)phenyl]propanoate]: the IC50 came out at 960 nM.
The figure for `COC[C@@H](NC(=O)Nc1c2c(cc3c1CCC3)CCC2)C(=O)OC` [Example 2II, methyl(2R)-2-{[(1,2,3,5,6,7-hexahydro-s-indacen-4-yl)carbamoyl]amino}-3-methoxypropanoate] is 5300 nM; for `COC(=O)C(Cc1cccc(-c2cc[nH]n2)c1)NC(=O)Nc1c2c(cc3c1CCC3)CCC2` (stereo not drawn) [Example 2J, Methyl 2-{[(1,2,3,5,6,7-hexahydro-s-indacen-4-yl)carbamoyl]amino}-3-[3-(1H-pyrazol-5-yl)phenyl]propanoate] it is 410 nM; for `COC(=O)[C@@H](CO)NC(=O)Nc1c2c(cc3c1CCC3)CCC2` [Example 2JJ, methyl(2R)-2-{[(1,2,3,5,6,7-hexahydro-s-indacen-4-yl)carbamoyl]amino}-3-hydroxypropanoate] it is 26000 nM.
`COC(=O)[C@@H](Cc1cccc(O)c1)NC(=O)Nc1c2c(cc3c1CCC3)CCC2` [Example 2K, Methyl(2R)-2-{[(1,2,3,5,6,7-hexahydro-s-indacen-4-yl)carbamoyl]amino}-3-(3-hydroxyphenyl)propanoate]: the IC50 came to 1300 nM.
As to `COC(=O)[C@@H](Cc1cccc(-c2cc[nH]n2)c1)NC(=O)Nc1c2c(cc3c1CCC3)CCC2` [Example 2L, Methyl (2R)-2-{[(1,2,3,5,6,7-hexahydro-s-indacen-4-yl)carbamoyl]amino}-3-[3-(1H-pyrazol-3-yl)phenyl]propanoate], the IC50 was 140 nM.
For the molecule `O=C(Nc1c2c(cc3c1CCC3)CCC2)N[C@H](Cc1cccnc1)C(=O)O` [Example 2LL, (2R)-2-{[(1,2,3,5,6,7-hexahydro-s-indacen-4-yl)carbamoyl]amino}-3-(pyridin-3-yl)propanoic acid], the IC50 amounted to 2000 nM.
As to `COC(=O)[C@@H](Cc1cccc(CO)c1)NC(=O)Nc1c2c(cc3c1CCC3)CCC2` [Example 2M, Methyl(2R)-2-{[(1,2,3,5,6,7-hexahydro-s-indacen-4-yl)carbamoyl]amino}-3-[3-(hydroxymethyl)phenyl]propanoate], the IC50 came to 380 nM.
With `COCCOC(=O)[C@@H](Cc1cccnc1)NC(=O)Nc1c2c(cc3c1CCC3)CCC2` [Example 2MM, 2-methoxyethyl(2R)-2-{[(1,2,3,5,6,7-hexahydro-s-indacen-4-yl)carbamoyl]amino}-3-(pyridin-3-yl)propanoate], the half-inhibitory concentration (IC50) was 2900 nM.
As for `COC(=O)[C@@H](CN)NC(=O)Nc1c2c(cc3c1CCC3)CCC2` [Example 2N, Methyl(2R)-3-amino-2-{[(1,2,3,5,6,7-hexahydro-s-indacen-4-yl)carbamoyl]amino}propanoate], the IC50 was 9300 nM.
Consider `O=C(Nc1c2c(cc3c1CCC3)CCC2)N[C@H](Cc1cccnc1)C(=O)OC1CCC1` [Example 2NN, cyclobutyl (2R)-2-{[(1,2,3,5,6,7-hexahydro-s-indacen-4-yl)carbamoyl]amino}-3-(pyridin-3-yl)propanoate], for which the IC50 came to 600 nM.

What is called IC50 is the concentration needed to halve the response being measured.

The values above are taken from patent US11345669B2, “Urea derivatives and methods of use thereof” (NodThera Limited, priority 2017, dated 2022).
